Experimental data: PubChem BioAssay (NCI)
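Step 1: Grow cells in 96-well plates. Step 2: Expose to compound for 48 hours at 5 concentrations. Step 3: Interpolate endpoints linearly; if unreached, use highest concentration. The concentration for 50% growth inhibition is given as GI50. The concentration for full growth arrest is given as TGI.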

Legend:
Experiment in all cases: DTP human tumour cell line panel, 48 h
[1] = tested on: HOP-62 NSCLC
[2] = tested on: IGROV1 ovarian
[3] = tested on: MOLT-4 leukemia
[4] = tested on: OVCAR-4 ovarian
[5] = tested on: SF-268 CNS
[6] = tested on: SK-OV-3 ovarian
[7] = tested on: SN12C renal
[8] = tested on: U251 CNS
[9] = tested on: DU-145 prostate
[10] = tested on: SNB-19 CNS

SMILES | TGI [1] | TGI [2] | TGI [3] | TGI [4] | TGI [5] | TGI [6] | TGI [7] | TGI [8] | GI50 [9] | TGI [9] | GI50 [1] | GI50 [2] | GI50 [4] | GI50 [5] | GI50 [6] | GI50 [7] | GI50 [10] | TGI [10] | GI50 [8] | GI50 [3]
C[N+]1=c2c3cccc4cccc(c(=O)n2CC1)c43 | 53.1 µM | 60.5 µM | 10.6 µM | 43.9 µM | 35.1 µM | 93.8 µM | 68.8 µM | 85.8 µM |  |  |  |  |  |  |  |  |  |  |  | 
CNC(=O)NCC1OC(n2cnc3c(NC(=O)Nc4ccccc4)ncnc32)C(O[Si](C)(C)C(C)(C)C)C1O[Si](C)(C)C(C)(C)C (configuration not stated) | 17.1 µM | 7.76 µM |  | 43.9 µM | 14 µM | > 100 µM | 3.38 µM | 10.8 µM | 2.58 µM | 5.71 µM | 4.98 µM | 2.74 µM | 3.44 µM | 3.58 µM | 6.88 µM | 1.81 µM | 4.57 µM | > 100 µM | 2.96 µM | 
COc1cc2c(cc1OC)C(C(=O)O)C(c1ccccc1)N(C)C2=O (configuration not stated) | > 100 µM | > 100 µM | > 100 µM | > 100 µM | > 100 µM | > 100 µM | > 100 µM | > 100 µM |  |  |  |  |  |  |  |  |  | > 100 µM |  | 
N#C/C(=C/C=C/c1ccco1)C(N)=O | > 10 µM | > 10 µM |  |  | > 10 µM | > 10 µM | > 10 µM | > 10 µM |  | > 10 µM |  |  |  |  |  |  |  |  |  | 
CC(C)/C=C1\CCC(CN2CCOCC2)C1=O (configuration not stated) | > 100 µM | 20.8 µM | 10.2 µM | 40 µM | 52.5 µM | > 100 µM | 36.5 µM | > 56.4 µM |  |  |  |  |  |  |  |  |  | > 100 µM |  | 
OC1(c2ccccc2)C2CC=CC2C1(c1ccccc1)c1ccccc1 (configuration not stated) | > 100 µM | 48.9 µM | > 100 µM |  | > 100 µM | > 100 µM | > 100 µM | > 100 µM |  | > 100 µM |  |  |  |  |  |  |  | > 100 µM |  | 
O=C(O)C(Cc1cnc[nH]1)N1C(=O)c2ccccc2C1=O (configuration not stated) | > 100 µM | > 100 µM | > 100 µM | > 100 µM | > 100 µM |  | > 100 µM | > 100 µM |  | > 100 µM |  |  |  |  |  |  |  | > 100 µM |  | 
O=C1C2C(C(=O)N1c1ccccc1)C1c3ccccc3C2C2C(=O)N(c3ccccc3)C(=O)C21 (configuration not stated) |  | > 100 µM | > 100 µM | > 100 µM | > 100 µM | > 100 µM | > 100 µM | 11.5 µM |  |  |  |  |  |  |  |  |  | > 100 µM |  | 
Cc1ccc(/C=C/c2c(C(=O)/C=C/c3ccccc3)c(C)nc3ccccc23)cc1 | 3.49 µM | 4.48 µM | 4.29 µM | 7.72 µM | 5.42 µM |  | 3.85 µM | 2.87 µM | 1.65 µM | 3.15 µM | 1.74 µM | 1.41 µM | 2.19 µM | 2.06 µM |  | 1.87 µM | 1.66 µM | 3.08 µM | 1.5 µM | 0.708 µM
Cc1cc(N(CCC#N)S(=O)(=O)c2ccccc2)ccc1/C=C1\N=C(c2ccc(Cl)cc2)OC1=O |  | > 100 µM | > 100 µM | > 100 µM | > 100 µM |  | > 100 µM | > 100 µM |  |  |  |  |  |  |  |  |  | > 100 µM |  | 
CCCn1c(SCCSc2c3ccccc3c(-c3nc(F)nc(F)n3)n2CCC)c2ccccc2c1-c1nc(F)nc(F)n1 | > 100 µM |  | > 100 µM | > 100 µM | > 100 µM | > 100 µM | > 100 µM | > 100 µM |  |  |  |  |  |  |  |  |  | > 100 µM |  | 
COc1cc2c(cc1OC)-c1ncc3c(OC)ccc(OC)c3c1C2 | 61.3 µM | 48.5 µM |  | > 100 µM |  | 98.7 µM | 58 µM | 56.4 µM | 28.1 µM | > 100 µM | 21.4 µM | 13.9 µM | 71.9 µM |  | 37.3 µM | 14.8 µM | 42.3 µM | > 100 µM | 14.6 µM | 
Cc1ccc(S(=O)(=O)N/N=C(\c2nc3ccc(Cl)cc3[nH]c2=O)C(O)c2ccco2)cc1 (configuration not stated) |  | > 100 µM | > 100 µM | > 100 µM | > 100 µM |  |  |  |  |  |  |  |  |  |  |  |  | > 100 µM |  | 
CC(C)C1CO[C@]2(C)CCC(=O)N12 (some centres not stated) | > 100 µM | > 100 µM | > 100 µM | > 100 µM | > 100 µM | > 100 µM | > 100 µM | > 100 µM |  |  |  |  |  |  |  |  |  | > 100 µM |  | 
C/C(CC(=O)NCCc1ccccc1)=N\NS(=O)(=O)c1ccc(C)cc1 | > 100 µM | > 100 µM | > 100 µM |  | > 100 µM | > 100 µM |  | > 100 µM |  |  |  |  |  |  |  |  |  |  |  | 
Cc1cc2c(c(C(N)=O)c1C)-c1cccc(F)c1C2=O | > 100 µM | > 100 µM | > 100 µM | > 100 µM | > 100 µM | > 100 µM | > 100 µM | > 100 µM |  |  |  |  |  |  |  |  |  | > 100 µM |  | 
C=C(C)[C@@H]1CCC=C2CC[C@]3(C)[C@H](CC[C@@H]4[C@@]5(C)CCCNC(C)(C)[C@@H]5CC[C@]43C)[C@H]21 |  | 3.54 µM | 4.09 µM |  | 8.53 µM | 27.3 µM | 3.48 µM | 3.12 µM | 1.86 µM | 3.57 µM |  | 1.91 µM |  | 2.77 µM | 12.1 µM | 1.79 µM |  |  | 1.69 µM | 1.87 µM
C=CC(=O)N1C/C(=C\c2ccc(Cl)c(Cl)c2)C(=O)/C(=C/c2ccc(Cl)c(Cl)c2)C1 | 0.607 µM | 0.263 µM | 0.38 µM | 0.122 µM | 0.298 µM | 1.61 µM | 0.302 µM | 0.0724 µM |  |  |  |  |  |  |  |  |  |  |  | 
CCOC(=O)NC(=O)c1cn(CCN2CCN(C(=O)CNC(=O)CNC(=O)Cn3cc(C(=O)NC(=O)OCC)c(=O)[nH]c3=O)CC2)c(=O)[nH]c1=O | > 100 µM |  | > 100 µM |  | > 100 µM | > 100 µM | > 100 µM | > 100 µM |  |  |  |  |  |  |  |  |  | > 100 µM |  | 
CCC[CH2][Sn]([CH2]CCC)([O]C(=O)c1cc(OC)c(OC)cc1OC)[O][Sn]([CH2]CCC)([CH2]CCC)[O]C(=O)c1cc(OC)c(OC)cc1OC | 3.67 µM | 2.68 µM | 0.786 µM | 2.96 µM | 0.972 µM | 2.58 µM | 1.72 µM | 2.41 µM |  |  | 2.11 µM | 1.17 µM | 1.33 µM | 0.27 µM | 1.21 µM | 0.532 µM | 0.27 µM | 1.08 µM | 1.17 µM | 0.101 µM
